Data reported in the supplement of paper PMC5908809.

How the values were obtained:
NK-92 (IL-2 2.5 ng/mL) [1] = test: drug sensitivity score (DSS) (DSS units); higher = more sensitive; extreme values may be limits of the assay; conditions: 72 h
[2] = system: normal primary NK cells, pool 1 (3 donors) (IL-2 2.5 ng/mL); test: as above; conditions: 72 h
[3] = system: normal primary NK cells, pool 3 (3 donors) (IL-2 2.5 ng/mL); test: as above; conditions: 72 h
IMC-1 (IL-2 20 ng/mL) [4] = test: as above; conditions: 72 h
[5] = system: normal primary NK cells, pool 2 (3 donors) (IL-2 2.5 ng/mL); test: as above; conditions: 72 h
NKL (IL-2 2.5 ng/mL) [6] = test: as above; conditions: 72 h
KAI3 (IL-2 2.5 ng/mL) [7] = test: as above; conditions: 72 h
[8] = system: normal primary NK cells, pool 1 (3 donors), resting (IL-2 0 ng/mL); test: as above; conditions: 72 h
SNK-6 (IL-2 2.5 ng/mL) [9] = test: as above; conditions: 72 h
DERL-7 (IL-2 2.5 ng/mL) [10] = test: as above; conditions: 72 h
YT (IL-2 2.5 ng/mL) [11] = test: as above; conditions: 72 h
NK-YS (IL-2 2.5 ng/mL) [12] = test: as above; conditions: 72 h
KHYG-1 (IL-2 2.5 ng/mL) [13] = test: as above; conditions: 72 h
NK-92 (IL-2 2.5 ng/mL) [14] = test: percent inhibition of viability; higher = more inhibition; conditions: 72 h
[15] = system: normal primary NK cells, pool 1 (3 donors) (IL-2 2.5 ng/mL); test: as above; conditions: 72 h
[16] = system: normal primary NK cells, pool 3 (3 donors) (IL-2 2.5 ng/mL); test: as above; conditions: 72 h
IMC-1 (IL-2 20 ng/mL) [17] = test: as above; conditions: 72 h
[18] = system: normal primary NK cells, pool 2 (3 donors) (IL-2 2.5 ng/mL); test: as above; conditions: 72 h
NKL (IL-2 2.5 ng/mL) [19] = test: as above; conditions: 72 h
KAI3 (IL-2 2.5 ng/mL) [20] = test: as above; conditions: 72 h
[21] = system: normal primary NK cells, pool 1 (3 donors), resting (IL-2 0 ng/mL); test: as above; conditions: 72 h
SNK-6 (IL-2 2.5 ng/mL) [22] = test: as above; conditions: 72 h
DERL-7 (IL-2 2.5 ng/mL) [23] = test: as above; conditions: 72 h
YT (IL-2 2.5 ng/mL) [24] = test: as above; conditions: 72 h
NK-YS (IL-2 2.5 ng/mL) [25] = test: as above; conditions: 72 h
KHYG-1 (IL-2 2.5 ng/mL) [26] = test: as above; conditions: 72 h
[27] = system: normal NK cells expanded with K562-aAPC; test: as above; conditions: 72 h, IL-2 2.5 ng/mL
Protocol: (§1)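 Drug sensitivity and resistance testing on K562-aAPC-expanded normal NK cells: 5 concentrations (10-fold steps over a 10,000-fold range), 72 h at 37 °C, viability by CellTiter-Glo normalised to DMSO and benzethonium chloride controls; DSS from the fitted curve.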

[28] = system: normal NK cells expanded with K562-aAPC; test: drug sensitivity score (DSS) (DSS units); higher = more sensitive; extreme values may be limits of the assay; conditions: 72 h; IL-2 2.5 ng/mL
Protocol: as §1

Cc1csc(-c2nnc(Nc3ccc(Oc4ncccc4-c4ccnc(N)n4)cc3)c3ccccc23)c1 [AMG-900] (max concentration tested 1000 nM)
Conditions | drug sensitivity score
DERL-7 (IL-2 2.5 ng/mL) [10] | 17.1
IMC-1 (IL-2 20 ng/mL) [4] | 6.18
KAI3 (IL-2 2.5 ng/mL) [7] | 5.44
KHYG-1 (IL-2 2.5 ng/mL) [13] | 12.6
NK-92 (IL-2 2.5 ng/mL) [1] | 6.74
NK-YS (IL-2 2.5 ng/mL) [12] | 20.2
NKL (IL-2 2.5 ng/mL) [6] | 0
SNK-6 (IL-2 2.5 ng/mL) [9] | 23
YT (IL-2 2.5 ng/mL) [11] | 3.19
[2] | 0
[3] | 0
[5] | 0
[8] | 0.61
[28] | 6.8

percent inhibition of viability [%]
Conditions | 0.1 nM | 1 nM | 10 nM | 100 nM | 1000 nM
DERL-7 (IL-2 2.5 ng/mL) [23] | -3.26 | -1.85 | 31 | 70.8 | 53.9
IMC-1 (IL-2 20 ng/mL) [17] | -5.67 | -6.98 | 18.2 | 21.9 | 63.9
KAI3 (IL-2 2.5 ng/mL) [20] | -5.87 | -5.96 | 19.4 | 20.4 | 43.4
KHYG-1 (IL-2 2.5 ng/mL) [26] | -2.26 | -0.47 | 44.5 | 33.3 | 59.8
NK-92 (IL-2 2.5 ng/mL) [14] | -9.63 | -11.2 | 17.6 | 27.6 | 52.6
NK-YS (IL-2 2.5 ng/mL) [25] | -5.77 | -3.39 | 59.6 | 59.6 | 71.8
NKL (IL-2 2.5 ng/mL) [19] | -16.8 | -17.8 | -16.6 | -9.7 | -5.52
SNK-6 (IL-2 2.5 ng/mL) [22] | 15.5 | 7.4 | 68.4 | 57.2 | 72.8
YT (IL-2 2.5 ng/mL) [24] | -0.32 | -0.28 | 13 | 16 | 24.9
[15] | -4.05 | -2.86 | -4.93 | -3.83 | -3.7
[16] | -7.42 | 4.77 | -7.75 | -0.31 | -0.94
[18] | -8.07 | -6.23 | -6.7 | -3.83 | -5.92
[21] | -1.37 | -7.12 | 5.07 | 10.8 | 11.6
[27] | -2.04 | -5.9 | -2.98 | 39.7 | 33

CC(C)[C@H](C(=O)Nc1ccc(C(=O)NO)cc1)c1ccccc1 [AR-42] (max concentration tested 10000 nM)
Conditions | drug sensitivity score
DERL-7 (IL-2 2.5 ng/mL) [10] | 17.7
IMC-1 (IL-2 20 ng/mL) [4] | 18.3
KAI3 (IL-2 2.5 ng/mL) [7] | 24.6
KHYG-1 (IL-2 2.5 ng/mL) [13] | 19.4
NK-92 (IL-2 2.5 ng/mL) [1] | 22.9
NK-YS (IL-2 2.5 ng/mL) [12] | 14.8
NKL (IL-2 2.5 ng/mL) [6] | 18.9
SNK-6 (IL-2 2.5 ng/mL) [9] | 18.9
YT (IL-2 2.5 ng/mL) [11] | 14.9
[2] | 16.6
[3] | 15
[5] | 15.4
[8] | 15.9
[28] | 17.3

percent inhibition of viability [%]
Conditions | 1 nM | 10 nM | 100 nM | 1000 nM | 10000 nM
DERL-7 (IL-2 2.5 ng/mL) [23] | -0.01 | 2.48 | -2.69 | 100 | 101
IMC-1 (IL-2 20 ng/mL) [17] | -2.38 | -3.46 | 10.1 | 92.8 | 101
KAI3 (IL-2 2.5 ng/mL) [20] | -2.48 | 10.7 | 56.8 | 93.1 | 109
KHYG-1 (IL-2 2.5 ng/mL) [26] | -2.7 | -4.06 | 8.15 | 104 | 109
NK-92 (IL-2 2.5 ng/mL) [14] | -16.8 | -2.43 | 34.6 | 104 | 109
NK-YS (IL-2 2.5 ng/mL) [25] | -6.36 | -5.82 | 4.66 | 76.3 | 108
NKL (IL-2 2.5 ng/mL) [19] | -5.13 | -4.69 | 35.2 | 77.5 | 107
SNK-6 (IL-2 2.5 ng/mL) [22] | -0.12 | 1.49 | 22.2 | 88.3 | 101
YT (IL-2 2.5 ng/mL) [24] | -2.57 | 0.39 | 5.64 | 75.6 | 108
[15] | 2.55 | 6.41 | 6.74 | 85.7 | 97.5
[16] | -3.19 | -1.6 | -0.03 | 82 | 98.4
[18] | -13.5 | -9.96 | 3.39 | 82.8 | 94.9
[21] | -9.37 | -0.47 | 13.4 | 77.4 | 88.7
[27] | 5.85 | 0.8 | 9.74 | 87.9 | 101
